The supplement of paper PMC10307832

Columns and labels:
Test in all cases: relative viability (nuclei count vs DMSO), 5 days (fraction); higher = more cells survive
HCC-78 = system: HCC-78
Method in brief: (§1)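 After 5 days of treatment, lung cancer cells in 1536-well plates were fixed and stained in a single step (final 0.05% Triton X-100, 1% formaldehyde, 1 ug/ml Hoechst) and their nuclei counted on 4× images. Treatment had been applied by pin tool the day after seeding as one drug alone or as a fixed anchor-drug dose with five library-drug doses (not always all listed) in √10 steps. Relative viability is the nuclei count of treated wells divided by that of vehicle wells, and values are medians of duplicate plates.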

SW 1573 = system: SW 1573
Method in brief: as §1

RERF-LC-KJ = system: RERF-LC-KJ
Method in brief: as §1

NCI-H1755 = system: NCI-H1755
Method in brief: as §1

NCI-H1975 = system: NCI-H1975
Method in brief: as §1

NCI-H2347 = system: NCI-H2347
Method in brief: as §1

PC-3 [JPC-3] = system: PC-3 [JPC-3]
Method in brief: as §1

NCI-H2126 = system: NCI-H2126
Method in brief: as §1

NCI-H647 = system: NCI-H647
Method in brief: as §1

LC-2-ad = system: LC-2-ad
Method in brief: as §1

HCC-15 = system: HCC-15
Method in brief: as §1

A-427 = system: A-427
Method in brief: as §1

SK-LU-1 = system: SK-LU-1
Method in brief: as §1

HOP-62 = system: HOP-62
Method in brief: as §1

NCI-H358 = system: NCI-H358
Method in brief: as §1

LXF-289 = system: LXF-289
Method in brief: as §1

NCI-H1915 = system: NCI-H1915
Method in brief: as §1

NCI-H1792 = system: NCI-H1792
Method in brief: as §1

NCI-H2228 = system: NCI-H2228
Method in brief: as §1

NCI-H1734 = system: NCI-H1734
Method in brief: as §1

O=c1cc(-c2cccc3c2Sc2ccccc2S3)oc(N2CCOCC2)c1 + C[C@]1(O)C[C@@H](c2nc(-c3ccc4ccc(-c5ccccc5)nc4c3)c3c(N)nccn32)C1 [Linsitinib] (partner 1 µM)
relative viability (HCC-78; first compound 0.08 µM): 0.561
relative viability (HCC-78; first compound 0.253 µM): 0.746
relative viability (HCC-78; first compound 0.8 µM): 0.41
relative viability (HCC-78; first compound 2.53 µM): 0.457
relative viability (HCC-78; first compound 8 µM): 0.575
relative viability (SW 1573; first compound 0.08 µM): 0.855
relative viability (SW 1573; first compound 0.253 µM): 0.819
relative viability (SW 1573; first compound 0.8 µM): 0.685
relative viability (SW 1573; first compound 2.53 µM): 0.809
relative viability (SW 1573; first compound 8 µM): 0.811
relative viability (RERF-LC-KJ; first compound 0.08 µM): 0.865
relative viability (RERF-LC-KJ; first compound 0.253 µM): 0.939
relative viability (RERF-LC-KJ; first compound 0.8 µM): 0.85
relative viability (RERF-LC-KJ; first compound 2.53 µM): 1.01
relative viability (RERF-LC-KJ; first compound 8 µM): 0.763
relative viability (NCI-H1755; first compound 0.08 µM): 1.03
relative viability (NCI-H1755; first compound 0.253 µM): 1.1
relative viability (NCI-H1755; first compound 0.8 µM): 0.978
relative viability (NCI-H1755; first compound 2.53 µM): 1.02
relative viability (NCI-H1755; first compound 8 µM): 0.936
relative viability (NCI-H1975; first compound 0.08 µM): 1.07
relative viability (NCI-H1975; first compound 0.253 µM): 1.2
relative viability (NCI-H1975; first compound 0.8 µM): 0.807
relative viability (NCI-H1975; first compound 2.53 µM): 0.863
relative viability (NCI-H1975; first compound 8 µM): 0.881
relative viability (NCI-H2347; first compound 0.08 µM): 0.918
relative viability (NCI-H2347; first compound 0.253 µM): 1.15
relative viability (NCI-H2347; first compound 0.8 µM): 0.998
relative viability (NCI-H2347; first compound 2.53 µM): 1.02
relative viability (NCI-H2347; first compound 8 µM): 1.11
relative viability (PC-3 [JPC-3]; first compound 0.08 µM): 1.02
relative viability (PC-3 [JPC-3]; first compound 0.253 µM): 1.03
relative viability (PC-3 [JPC-3]; first compound 0.8 µM): 0.992
relative viability (PC-3 [JPC-3]; first compound 2.53 µM): 0.972
relative viability (PC-3 [JPC-3]; first compound 8 µM): 0.91
relative viability (NCI-H2126; first compound 0.08 µM): 0.707
relative viability (NCI-H2126; first compound 0.253 µM): 0.809
relative viability (NCI-H2126; first compound 0.8 µM): 0.708
relative viability (NCI-H2126; first compound 2.53 µM): 0.667
relative viability (NCI-H2126; first compound 8 µM): 0.592
relative viability (NCI-H647; first compound 0.08 µM): 1.3
relative viability (NCI-H647; first compound 0.253 µM): 1.16
relative viability (NCI-H647; first compound 0.8 µM): 1.16
relative viability (NCI-H647; first compound 2.53 µM): 1.03
relative viability (NCI-H647; first compound 8 µM): 1.35
relative viability (LC-2-ad; first compound 0.08 µM): 0.79
relative viability (LC-2-ad; first compound 0.253 µM): 0.967
relative viability (LC-2-ad; first compound 0.8 µM): 0.828
relative viability (LC-2-ad; first compound 2.53 µM): 0.749
relative viability (LC-2-ad; first compound 8 µM): 0.802
relative viability (HCC-15; first compound 0.08 µM): 0.958
relative viability (HCC-15; first compound 0.253 µM): 0.93
relative viability (HCC-15; first compound 0.8 µM): 0.904
relative viability (HCC-15; first compound 2.53 µM): 0.844
relative viability (HCC-15; first compound 8 µM): 0.88
relative viability (A-427; first compound 0.08 µM): 1.09
relative viability (A-427; first compound 0.253 µM): 0.959
relative viability (A-427; first compound 0.8 µM): 1.19
relative viability (A-427; first compound 2.53 µM): 1.07
relative viability (A-427; first compound 8 µM): 1.08
relative viability (SK-LU-1; first compound 0.08 µM): 1.14
relative viability (SK-LU-1; first compound 0.253 µM): 1.22
relative viability (SK-LU-1; first compound 0.8 µM): 1.27
relative viability (SK-LU-1; first compound 2.53 µM): 0.952
relative viability (SK-LU-1; first compound 8 µM): 0.918
relative viability (HOP-62; first compound 0.08 µM): 1.04
relative viability (HOP-62; first compound 0.253 µM): 1.01
relative viability (HOP-62; first compound 0.8 µM): 1.01
relative viability (HOP-62; first compound 2.53 µM): 0.789
relative viability (HOP-62; first compound 8 µM): 0.917
relative viability (NCI-H358; first compound 0.08 µM): 0.618
relative viability (NCI-H358; first compound 0.253 µM): 0.665
relative viability (NCI-H358; first compound 0.8 µM): 0.79
relative viability (NCI-H358; first compound 2.53 µM): 0.707
relative viability (NCI-H358; first compound 8 µM): 0.784
relative viability (LXF-289; first compound 0.08 µM): 0.993
relative viability (LXF-289; first compound 0.253 µM): 0.976
relative viability (LXF-289; first compound 0.8 µM): 0.99
relative viability (LXF-289; first compound 2.53 µM): 0.96
relative viability (LXF-289; first compound 8 µM): 1.07
relative viability (NCI-H1915; first compound 0.08 µM): 1.06
relative viability (NCI-H1915; first compound 0.253 µM): 1.1
relative viability (NCI-H1915; first compound 0.8 µM): 1.07
relative viability (NCI-H1915; first compound 2.53 µM): 1.05
relative viability (NCI-H1915; first compound 8 µM): 1.12
relative viability (NCI-H1792; first compound 0.253 µM): 0.61
relative viability (NCI-H1792; first compound 0.8 µM): 0.502
relative viability (NCI-H1792; first compound 2.53 µM): 0.535
relative viability (NCI-H1792; first compound 8 µM): 0.516
relative viability (NCI-H2228; first compound 0.08 µM): 0.545
relative viability (NCI-H2228; first compound 0.253 µM): 0.588
relative viability (NCI-H2228; first compound 0.8 µM): 0.826
relative viability (NCI-H2228; first compound 2.53 µM): 0.592
relative viability (NCI-H2228; first compound 8 µM): 0.63
relative viability (NCI-H1734; first compound 0.08 µM): 0.854
relative viability (NCI-H1734; first compound 0.253 µM): 1.16
relative viability (NCI-H1734; first compound 0.8 µM): 1
relative viability (NCI-H1734; first compound 2.53 µM): 0.876
relative viability (NCI-H1734; first compound 8 µM): 1.13
